Data reported in PubChem BioAssay AID1845205 (Molecular Pharmacology Branch, DTP, NCI, 2023).

System: MPNST multicellular tumor spheroids, viability % test/control
Assay: Anticancer human tumor MPNST cell line growth inhibition;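 also: spheroids exposed to agents for seven days after three days of growth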;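 as to viability, T/C: luminescence signal used as surrogate for viable cell amount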
Conditions: for IC50: curve of first compound; for viability, T/C: stronger effect = lower value
Text: Multicellular complex tumor spheroid response to DNA repair inhibitors in combination with DNA-damaging drugs
This study explores the anticancer activities of DNA-damaging drugs and inhibitors of DNA damage repair, both as single agents and in combinations. Complex tumor spheroids comprised of malignant cells, endothelial cells and mesenchymal stem cells served as an in vitro model for human solid tumors. This model system incorporates physiologically relevant features and patient-derived or established malignant cell lines with clinically relevant genetic alterations from many tumor types. Twenty-six patient-derived or established malignant cell lines were evaluated representing sarcoma, melanoma, small cell lung cancer (SCLC), non-small cell lung cancer (NSCLC), as well as bladder, ovarian and pancreatic cancers. The concentration ranges selected for each drug and investigational agent were based upon clinically achievable concentrations if the clinical Cmax of the agent was known.
Compounds. The drugs and compounds olaparib (NSC753686), talazoparib (NSC767125), berzosertib (NSC777718), elimusertib (NSC800525), nedisertib (NSC802822), VX-984 (NSC792969), AZD-1390 (NSC803789), temozolomide (NSC362856), topotecan (NSC609699), trabectedin (NSC813783), staurosporine (NSC755774), and gemcitabine (NSC613327) were obtained from the National Cancer Institute (NCI) Developmental Therapeutics Program Chemical Repository. The FDA-approved anticancer drug set is available from the Developmental Therapeutics Program at https://dtp.cancer.gov/organization/dscb/obtaining/available_plates.htm. […] The stock solutions were prepared in dimethyl sulfoxide (DMSO, Sigma-Aldrich, St. Louis, MO, cat. D2650) at 400-fold the tested concentration and stored at -70 degrees C. Prior to their use, the stock solutions were diluted in fresh medium and the final DMSO concentration in the assay was 0.25% (v/v). All drugs and investigational agents were tested over a range starting from a high concentration at or near the clinical Cmax and decreasing in half-log increments. If the clinical Cmax for an agent had not been determined, the highest concentration tested was 10 microM.
Cell Lines. The patient-derived cancer cell (PDC) lines: 156681-154-R-J1-PDC, 283228-195-R-J1-PDC, 287954-098-R-J1-PDC, 292921-168-R-J2-PDC, 349418-098-R-PDC, 425362-245-T-J1-PDC, 556581-035-R-J1-PDC, and BL0293-F563-PDC were received from the NCI Patient-Derived Models Repository (PDMR, https://pdmr.cancer.gov). The established cell lines HS-SY-2 (RRID:CVCL_8719), MPNST, and SYO-1 (RRID:CVCL_7146) were obtained from the Sloan Kettering Institute. The alveolar soft parts sarcoma cell line ASPS-1 (RRID:CVCL_S738) was established at the NCI and grown from internal seed stocks. The following established cell lines were purchased from the American Type Culture Collection (ATCC, Manassas, VA): G-401 (ATCC, cat. CRL-1441, RRID:CVCL_0270), SW982 (ATCC, cat. HTB-93, RRID:CVCL_1734), VA-ES-BJ (ATCC, cat. CRL-2138, RRID:CVCL_1785), NCI-H719 (ATCC, cat. CRL-5837, RRID:CVCL_1582), NCI-H196 (ATCC, cat. CRL-5823, RRID:CVCL_1509), NCI-H841 (ATCC, cat. CRL-5845, RRID:CVCL_1595), NCI-H1618 (ATCC, cat. CRL-5879, RRID:CVCL_1480), NCI-H1876 (ATCC, cat. CRL-5902, RRID:CVCL_1503), DMS 114 (ATCC, cat. CRL-2066; RRID:CVCL_1174), NCI-H211 (ATCC, cat. CRL-5824; RRID:CVCL_1529), and SW 1271 (ATCC, cat. CRL-2177, RRID:CVCL_1716). The small cell lung cancer cell line COR-L88 was purchased from Sigma-Aldrich (cat. 92031917-1VL, RRID:CVCL_1141). The non-small cell lung cancer cell lines NCI-H226 (RRID:CVCL_1544) and NCI-H322M (RRID:CVCL_1557) were established at the NCI and grown from internal seed stocks. Pooled donor human umbilical vein endothelial cells (HUVEC, Lonza, cat. CC-2519) and human mesenchymal stem cells (hMSC, Lonza, cat. PT-2501) were purchased from Lonza (Walkersville, MD).
Cell Culture. All cells were maintained in an incubator at 37 degrees C and 5% CO2 with 95% humidity. […]

[1] = second compound 0.003 µM, first compound 0.0316 µM
[2] = second compound 0.003 µM, first compound 0.1 µM
[3] = second compound 0.003 µM, first compound 0.316 µM
[4] = second compound 0.003 µM, first compound 1 µM
[5] = second compound 0.003 µM, first compound 3.16 µM
[6] = second compound 0.003 µM, first compound 10 µM
[7] = second compound 0.00949 µM, first compound 0.0316 µM
[8] = second compound 0.00949 µM, first compound 0.1 µM
[9] = second compound 0.00949 µM, first compound 0.316 µM
[10] = second compound 0.00949 µM, first compound 1 µM
[11] = second compound 0.00949 µM, first compound 3.16 µM
[12] = second compound 0.00949 µM, first compound 10 µM
[13] = second compound 0.03 µM, first compound 0.0316 µM
[14] = second compound 0.03 µM, first compound 0.1 µM
[15] = second compound 0.03 µM, first compound 0.316 µM
[16] = second compound 0.03 µM, first compound 1 µM
[17] = second compound 0.03 µM, first compound 3.16 µM
[18] = second compound 0.03 µM, first compound 10 µM
[19] = second compound 0.0949 µM, first compound 0.0316 µM
[20] = second compound 0.0949 µM, first compound 0.1 µM
[21] = second compound 0.0949 µM, first compound 0.316 µM
[22] = second compound 0.0949 µM, first compound 1 µM
[23] = second compound 0.0949 µM, first compound 3.16 µM
[24] = second compound 0.0949 µM, first compound 10 µM
[25] = second compound 0.3 µM, first compound 0.0316 µM
[26] = second compound 0.3 µM, first compound 0.1 µM
[27] = second compound 0.3 µM, first compound 0.316 µM
[28] = second compound 0.3 µM, first compound 1 µM
[29] = second compound 0.3 µM, first compound 3.16 µM
[30] = second compound 0.3 µM, first compound 10 µM

SMILES | IC50 (second compound 0.003 µM) | IC50 (second compound 0.00949 µM) | IC50 (second compound 0.03 µM) | IC50 (second compound 0.0949 µM) | IC50 (second compound 0.3 µM) | viability, T/C [1] | viability, T/C [2] | viability, T/C [3] | viability, T/C [4] | viability, T/C [5] | viability, T/C [6] | viability, T/C [7] | viability, T/C [8] | viability, T/C [9] | viability, T/C [10] | viability, T/C [11] | viability, T/C [12] | viability, T/C [13] | viability, T/C [14] | viability, T/C [15] | further results
CC1COCCN1c1cc(-c2ccnn2C)c2ccnc(-c3ccn[nH]3)c2n1 (stereo not given) + CC[C@@]1(O)C(=O)OCc2c1cc1n(c2=O)Cc2cc3c(CN(C)C)c(O)ccc3nc2-1 | 56.2 nM | 31.8 nM | < 31.6 nM | < 31.6 nM | < 31.6 nM | 51% | 49.7% | 39.3% | 34.1% | 25.9% | 26.9% | 50.3% | 44% | 42.2% | 34.6% | 26.5% | 23.8% | 48.7% | 44.5% | 48.4% | viability, T/C [16]: 34.6%; viability, T/C [17]: 26.1%; viability, T/C [18]: 23.5%; viability, T/C [19]: 45.8%; viability, T/C [20]: 43.8%; viability, T/C [21]: 41%; viability, T/C [22]: 28.3%; viability, T/C [23]: 26.9%; viability, T/C [24]: 21.8%; viability, T/C [25]: 41.1%; viability, T/C [26]: 39.9%; viability, T/C [27]: 34%; viability, T/C [28]: 28.1%; viability, T/C [29]: 21.2%; viability, T/C [30]: 17.5%
COc1cc(C)[nH]c(=O)c1CN1CCc2c(Cl)cc(C(OC)C3COC3)c(Cl)c2C1=O (stereo not given) + CC[C@@]1(O)C(=O)OCc2c1cc1n(c2=O)Cc2cc3c(CN(C)C)c(O)ccc3nc2-1 | > 10000 nM | > 10000 nM | < 31.6 nM | < 31.6 nM | < 31.6 nM | 92.6% | 95.7% | 91.3% | 103% | 93.6% | 95.5% | 96.6% | 88.5% | 96.4% | 78% | 77.9% | 86.3% | 46.4% | 49.5% | 51.5% | viability, T/C [16]: 49.2%; viability, T/C [17]: 54.2%; viability, T/C [18]: 51.6%; viability, T/C [19]: 48.5%; viability, T/C [20]: 41.7%; viability, T/C [21]: 43.7%; viability, T/C [22]: 47.7%; viability, T/C [23]: 45.7%; viability, T/C [24]: 46.7%; viability, T/C [25]: 37%; viability, T/C [26]: 39.2%; viability, T/C [27]: 39.2%; viability, T/C [28]: 37.3%; viability, T/C [29]: 37.7%; viability, T/C [30]: 39.5%
Cc1cc(C)c(CNC(=O)c2cc(-c3ccc(CN4CCOCC4)cc3)cc3c2cnn3C2CCCC2)c(=O)[nH]1 + CC[C@@]1(O)C(=O)OCc2c1cc1n(c2=O)Cc2cc3c(CN(C)C)c(O)ccc3nc2-1 | > 10000 nM | > 10000 nM | > 10000 nM | > 10000 nM | < 31.6 nM | 86% | 79.4% | 88.8% | 83.2% | 93.3% | 87.5% | 80.3% | 70% | 91% | 71.4% | 76.1% | 78.9% | 55.4% | 54.6% | 50% | viability, T/C [16]: 53%; viability, T/C [17]: 58.2%; viability, T/C [18]: 68.2%; viability, T/C [19]: 51.8%; viability, T/C [20]: 52.1%; viability, T/C [21]: 51.1%; viability, T/C [22]: 52.4%; viability, T/C [23]: 50.3%; viability, T/C [24]: 58.3%; viability, T/C [25]: 41.7%; viability, T/C [26]: 41%; viability, T/C [27]: 43.2%; viability, T/C [28]: 37.8%; viability, T/C [29]: 42.6%; viability, T/C [30]: 45.4%
[2H]c1nc(C)nc([2H])c1-c1cc(NC[C@@H](C)c2cccc3c(C(=O)NC)ccnc23)ncn1 + CC[C@@]1(O)C(=O)OCc2c1cc1n(c2=O)Cc2cc3c(CN(C)C)c(O)ccc3nc2-1 | > 10000 nM | > 10000 nM | < 31.6 nM | < 31.6 nM | < 31.6 nM | 96.5% | 107% | 93.5% | 99.7% | 92.4% | 67.8% | 74.5% | 58.1% | 77.8% | 74.2% | 49.4% | 59.9% | 39.3% | 39.7% | 37.6% | viability, T/C [16]: 36.4%; viability, T/C [17]: 37.8%; viability, T/C [18]: 36.2%; viability, T/C [19]: 38.5%; viability, T/C [20]: 37.5%; viability, T/C [21]: 39.4%; viability, T/C [22]: 35.4%; viability, T/C [23]: 34%; viability, T/C [24]: 35.1%; viability, T/C [25]: 33.1%; viability, T/C [26]: 31%; viability, T/C [27]: 29.9%; viability, T/C [28]: 30.8%; viability, T/C [29]: 28.1%; viability, T/C [30]: 25.9%
